From ChEMBL document CHEMBL4373641, “Synthesis and direct comparison of the anticancer activities of phomopsolides D and E and two 7-oxa-/7-aza-analogues” (Medchemcomm, 2019)

What was measured:
Assay type in all cases: functional, cell-based
[1] = tested on: KM12; experiment: Antiproliferative activity against human KM12 cells assessed as reduction in cell viability after 48 hrs by SRB assay; settings: KM12, 48 h
[2] = tested on: UACC-62; experiment: Antiproliferative activity against human UACC62 cells assessed as reduction in cell viability after 48 hrs by SRB assay; settings: UACC-62, 48 h, pooled result: one value given for 8 cell lines, strains, targets or settings
[3] = tested on: UO-31; experiment: Antiproliferative activity against human UO31 cells assessed as reduction in cell viability after 48 hrs by SRB assay; settings: UO-31, 48 h
[4] = tested on: MDA-MB-231; experiment: Antiproliferative activity against human MDA-MB-231 cells assessed as reduction in cell viability after 48 hrs by SRB assay; settings: MDA-MB-231, 48 h
[5] = tested on: SNB-19; experiment: Antiproliferative activity against human SNB19 cells assessed as reduction in cell viability after 48 hrs by SRB assay; settings: SNB-19, 48 h
[6] = tested on: SF-539; experiment: Antiproliferative activity against human SF539 cells assessed as reduction in cell viability after 48 hrs by SRB assay; settings: SF-539, 48 h
[7] = tested on: U-251; experiment: Antiproliferative activity against human U251 cells assessed as reduction in cell viability after 48 hrs by SRB assay; settings: U-251, 48 h
[8] = tested on: K562; experiment: Antiproliferative activity against human K562 cells assessed as reduction in cell viability after 48 hrs by SRB assay; settings: K562, 48 h
[9] = tested on: A498; experiment: Antiproliferative activity against human A498 cells assessed as reduction in cell viability after 48 hrs by SRB assay; settings: A498, 48 h
[10] = tested on: SK-OV-3; experiment: Antiproliferative activity against human SKOV3 cells assessed as reduction in cell viability after 48 hrs by SRB assay; settings: SK-OV-3, 48 h
[11] = tested on: MDA-MB-435; experiment: Antiproliferative activity against human MDA-MB-435 cells assessed as reduction in cell viability after 48 hrs by SRB assay; settings: MDA-MB-435, 48 h
[12] = tested on: HT-29; experiment: Antiproliferative activity against human HT-29 cells assessed as reduction in cell viability after 48 hrs by SRB assay; settings: HT-29, 48 h
[13] = tested on: HCT-15; experiment: Antiproliferative activity against human HCT15 cells assessed as reduction in cell viability after 48 hrs by SRB assay; settings: HCT-15, 48 h
[14] = tested on: CCRF-CEM; experiment: Antiproliferative activity against human CCRF-CEM cells assessed as reduction in cell viability after 48 hrs by SRB assay
[15] = tested on: SF-295; experiment: Antiproliferative activity against human SF295 cells assessed as reduction in cell viability after 48 hrs by SRB assay; settings: SF-295, 48 h
[16] = tested on: IGROV-1; experiment: Antiproliferative activity against human IGROV1 cells assessed as reduction in cell viability after 48 hrs by SRB assay; settings: IGROV-1, 48 h
[17] = tested on: SR; experiment: Antiproliferative activity against human SR cells assessed as reduction in cell viability after 48 hrs by SRB assay
[18] = tested on: OVCAR-4; experiment: Antiproliferative activity against human OVCAR4 cells assessed as reduction in cell viability after 48 hrs by SRB assay; settings: OVCAR-4, 48 h
[19] = tested on: HCT-116; experiment: Antiproliferative activity against human HCT116 cells assessed as reduction in cell viability after 48 hrs by SRB assay; settings: HCT-116, 48 h
[20] = tested on: NCI/ADR-RES; experiment: Antiproliferative activity against human NCI/ADR-RES cells assessed as reduction in cell viability after 48 hrs by SRB assay
[21] = tested on: OVCAR-5; experiment: Antiproliferative activity against human OVCAR5 cells assessed as reduction in cell viability after 48 hrs by SRB assay; settings: OVCAR-5, 48 h
[22] = tested on: NCI-H522; experiment: Antiproliferative activity against human NCI-H522 cells assessed as reduction in cell viability after 48 hrs by SRB assay; settings: NCI-H522, 48 h, pooled result: one value given for 8 cell lines, strains, targets or settings
[23] = tested on: T47D; experiment: Antiproliferative activity against human T47D cells assessed as reduction in cell viability after 48 hrs by SRB assay
[24] = tested on: MDA-MB-468; experiment: Antiproliferative activity against human MDA-MB-468 cells assessed as reduction in cell viability after 48 hrs by SRB assay; settings: MDA-MB-468, 48 h
[25] = tested on: COLO 205; experiment: Antiproliferative activity against human COLO205 cells assessed as reduction in cell viability after 48 hrs by SRB assay; settings: COLO 205, 48 h
[26] = tested on: MOLT-4; experiment: Antiproliferative activity against human MOLT4 cells assessed as reduction in cell viability after 48 hrs by SRB assay; settings: MOLT-4, 48 h
[27] = tested on: DU-145; experiment: Antiproliferative activity against human DU145 cells assessed as reduction in cell viability after 48 hrs by SRB assay; settings: DU-145, 48 h
[28] = tested on: PC-3; experiment: Antiproliferative activity against human PC3 cells assessed as reduction in cell viability after 48 hrs by SRB assay; settings: PC-3, 48 h
[29] = tested on: SW-620; experiment: Antiproliferative activity against human SW620 cells assessed as reduction in cell viability after 48 hrs by SRB assay; settings: SW-620, 48 h
[30] = tested on: OVCAR-3; experiment: Antiproliferative activity against human OVCAR3 cells assessed as reduction in cell viability after 48 hrs by SRB assay; settings: OVCAR-3, 48 h
[31] = tested on: HCC 2998; experiment: Antiproliferative activity against human HCC2998 cells assessed as reduction in cell viability after 48 hrs by SRB assay; settings: HCC 2998, 48 h
[32] = tested on: 786-0; experiment: Antiproliferative activity against human 786-0 cells assessed as reduction in cell viability after 48 hrs by SRB assay; settings: 786-0, 48 h
[33] = tested on: SN12C; experiment: Antiproliferative activity against human SN12C cells assessed as reduction in cell viability after 48 hrs by SRB assay
[34] = tested on: OVCAR-8; experiment: Antiproliferative activity against human OVCAR8 cells assessed as reduction in cell viability after 48 hrs by SRB assay; settings: OVCAR-8, 48 h
[35] = tested on: MCF7; experiment: Antiproliferative activity against human MCF7 cells assessed as reduction in cell viability after 48 hrs by SRB assay; settings: MCF7, 48 h
[36] = tested on: HOP-92; experiment: Antiproliferative activity against human HOP92 cells assessed as reduction in cell viability after 48 hrs by SRB assay; settings: HOP-92, 48 h
[37] = tested on: RXF 393; experiment: Antiproliferative activity against human RXF393 cells assessed as reduction in cell viability after 48 hrs by SRB assay; settings: RXF 393, 48 h
[38] = tested on: Hs-578T; experiment: Antiproliferative activity against human Hs 578T cells assessed as reduction in cell viability after 48 hrs by SRB assay
[39] = tested on: SNB-75; experiment: Antiproliferative activity against human SNB75 cells assessed as reduction in cell viability after 48 hrs by SRB assay; settings: SNB-75, 48 h
[40] = tested on: HL-60(TB); experiment: Antiproliferative activity against human HL-60(TB) cells assessed as reduction in cell viability after 48 hrs by SRB assay; settings: HL-60, 48 h
[41] = tested on: ACHN; experiment: Antiproliferative activity against human ACHN cells assessed as reduction in cell viability after 48 hrs by SRB assay
[42] = tested on: RPMI-8226; experiment: Antiproliferative activity against human RPMI8226 cells assessed as reduction in cell viability after 48 hrs by SRB assay; settings: RPMI-8226, 48 h
[43] = tested on: BT-549; experiment: Antiproliferative activity against human BT549 cells assessed as reduction in cell viability after 48 hrs by SRB assay; settings: BT-549, 48 h
[44] = tested on: CAKI-1; experiment: Antiproliferative activity against human CAKI-1 cells assessed as reduction in cell viability after 48 hrs by SRB assay; settings: CAKI-1, 48 h
[45] = tested on: TK-10; experiment: Antiproliferative activity against human TK10 cells assessed as reduction in cell viability after 48 hrs by SRB assay; settings: TK-10, 48 h
[46] = tested on: SF-268; experiment: Antiproliferative activity against human SF268 cells assessed as reduction in cell viability after 48 hrs by SRB assay; settings: SF-268, 48 h

## C/C=C(\C)C(=O)O[C@H]1C=CC(=O)O[C@H]1CCC(=O)[C@H](C)O
[1]
  IC50: 18 µM
[2]
  IC50: 24 µM
[3]
  IC50: 2 to 49 µM
[4]
  IC50: 20 µM
[5]
  IC50: 2 to 49 µM
[6]
  IC50: 2 to 49 µM
[7]
  IC50: 2 to 49 µM
[8]
  IC50: 2 to 49 µM
[9]
  IC50: 2 to 49 µM
[10]
  IC50: 2 to 49 µM
[11]
  IC50: 20 µM
[12]
  IC50: 18 µM
[13]
  IC50: 18 µM
[14]
  IC50: 2 to 49 µM
[15]
  IC50: 2 to 49 µM
[16]
  IC50: 2 to 49 µM
[17]
  IC50: 2 to 49 µM
[18]
  IC50: 2 to 49 µM
[19]
  IC50: 18 µM
[20]
  IC50: 20 µM
[21]
  IC50: 2 to 49 µM
[22]
  IC50: 26 µM
[23]
  IC50: 20 µM
[24]
  IC50: 2 to 49 µM
[25]
  IC50: 18 µM
[26]
  IC50: 2 to 49 µM
[27]
  IC50: 23 µM
[28]
  IC50: 23 µM
[29]
  IC50: 18 µM
[30]
  IC50: 2 to 49 µM
[31]
  IC50: 18 µM
[32]
  IC50: 2 to 49 µM
[33]
  IC50: 2 to 49 µM
[34]
  IC50: 2 to 49 µM
[35]
  IC50: 20 µM
[36]
  IC50: 2 to 49 µM
[37]
  IC50: 2 to 49 µM
[38]
  IC50: 20 µM
[39]
  IC50: 2 to 49 µM
[40]
  IC50: 2 to 49 µM
[41]
  IC50: 2 to 49 µM
[42]
  IC50: 2 to 49 µM
[43]
  IC50: 2 to 49 µM
[44]
  IC50: 2 to 49 µM
[45]
  IC50: 2 to 49 µM
[46]
  IC50: 2 to 49 µM

## C/C=C(\C)C(=O)O[C@H]1C=CC(=O)O[C@H]1COC(=O)[C@H](C)O
[1]
  IC50: 11 µM
[2]
  IC50: 13 µM
[3]
  IC50: 15 µM
[4]
  IC50: 12 µM
[5]
  IC50: 16 µM
[6]
  IC50: 16 µM
[7]
  IC50: 16 µM
[8]
  IC50: 2 to 49 µM
[9]
  IC50: 15 µM
[10]
  IC50: 16 µM
[11]
  IC50: 12 µM
[12]
  IC50: 11 µM
[13]
  IC50: 11 µM
[14]
  IC50: 2 to 49 µM
[15]
  IC50: 16 µM
[16]
  IC50: 16 µM
[17]
  IC50: 2 to 49 µM
[18]
  IC50: 16 µM
[19]
  IC50: 11 µM
[20]
  IC50: 12 µM
[21]
  IC50: 16 µM
[22]
  IC50: 19 µM
[23]
  IC50: 12 µM
[24]
  IC50: 2 to 49 µM
[25]
  IC50: 11 µM
[26]
  IC50: 2 to 49 µM
[27]
  IC50: 16 µM
[28]
  IC50: 16 µM
[29]
  IC50: 11 µM
[30]
  IC50: 16 µM
[31]
  IC50: 11 µM
[32]
  IC50: 15 µM
[33]
  IC50: 15 µM
[34]
  IC50: 16 µM
[35]
  IC50: 12 µM
[36]
  IC50: 2 to 49 µM
[37]
  IC50: 15 µM
[38]
  IC50: 12 µM
[39]
  IC50: 16 µM
[40]
  IC50: 2 to 49 µM
[41]
  IC50: 15 µM
[42]
  IC50: 2 to 49 µM
[43]
  IC50: 2 to 49 µM
[44]
  IC50: 15 µM
[45]
  IC50: 15 µM
[46]
  IC50: 16 µM
